In article PMC4965013, “Open Source Drug Discovery with the Malaria Box Compound Collection for Neglected Diseases and Beyond” (PLoS Pathogens, 2016):

Key:
P. falciparum = test: EC50 listed in S2 Table Metabolomics (used to set the concentration tested); format: cell-based; conditions: Plasmodium falciparum; EC50 used for Factor_XEC50 in metabolomics; read-out: EC50_nM
[1] = tested on: P. falciparum 3D7 trophozoites; test: Metabolomic fingerprint profiling LC-MS; format: cell-based, Plasmodium falciparum; design: UDP-D-glucose / ADP-D-glucose: unit not given here; conditions: for Acetyllysine / N-acetyl-L-ornithine / N-carbamoyl-L-aspartate / NADPH / dAMP / dCMP / dTDP / dTMP / dTTP / dihydroorotate / orotate / DLH / DLS/SDL/SID / PD / PEE / PVNF / 3-phosphoglycerate / ADP-D-glucose / ATP / CDP / D-sedoheptulose-1/7-phosphate / FAD / GMP / NAD+ / NADP+ / Octoluse Bisphosphate / Pyroglutamic acid / UDP-D-glucose / UDP-D-glucuronate / UDP-N-acetyl-glucosamine / UDP / UMP / UTP / a-ketoglutarate / citrate/isocitrate / cytidine / dATP / dGMP/AMP / fumarate / glucose-1/6-phosphate / glycerate / guanine / guanosine / hypoxanthine / indole / inosine / nicotinate / ornithine / phosphoenolpyruvate / pyruvate / ribose-phosphate / sarcosine/alanine / sn-glycerol-3-phosphate / succinate/methylmalonic acid / uridine / xanthosine: S2 Table Metabolomics; for Acetyllysine: metabolite Acetyllysine; for N-acetyl-L-ornithine: metabolite N-acetyl-L-ornithine; for N-carbamoyl-L-aspartate: metabolite N-carbamoyl-L-aspartate; for NADPH: metabolite NADPH; for dAMP: metabolite dAMP; for dCMP: metabolite dCMP; for dTDP: metabolite dTDP; for dTMP: metabolite dTMP; for dTTP: metabolite dTTP; for dihydroorotate: metabolite dihydroorotate; for orotate: metabolite orotate; for DLH: peptide DLH; for DLS/SDL/SID: peptide DLS/SDL/SID; for PD: peptide PD; for PEE: peptide PEE; for PVNF: peptide PVNF; for 3-phosphoglycerate: metabolite 3-phosphoglycerate; for ADP-D-glucose: metabolite ADP-D-glucose; for ATP: metabolite ATP; for CDP: metabolite CDP; for CDP / D-sedoheptulose-1/7-phosphate / GMP / Octoluse Bisphosphate / UDP / UMP / UTP / citrate/isocitrate / dGMP/AMP / fumarate / glucose-1/6-phosphate / glycerate / guanine / guanosine / inosine / pyruvate / sarcosine/alanine / succinate/methylmalonic acid / uridine / xanthosine: change in metabolite level after compound treatment; for D-sedoheptulose-1/7-phosphate: metabolite D-sedoheptulose-1/7-phosphate; for FAD: metabolite FAD; for GMP: metabolite GMP; for NAD+: metabolite NAD+; for NADP+: metabolite NADP+; for Octoluse Bisphosphate: metabolite Octoluse Bisphosphate; for Pyroglutamic acid: metabolite Pyroglutamic acid; for UDP-D-glucose: metabolite UDP-D-glucose; for UDP-D-glucuronate: metabolite UDP-D-glucuronate; for UDP-N-acetyl-glucosamine: metabolite UDP-N-acetyl-glucosamine; for UDP: metabolite UDP; for UMP: metabolite UMP; for UTP: metabolite UTP; for a-ketoglutarate: metabolite a-ketoglutarate; for citrate/isocitrate: metabolite citrate/isocitrate; for cytidine: metabolite cytidine; for dATP: metabolite dATP; for dGMP/AMP: metabolite dGMP/AMP; for fumarate: metabolite fumarate; for glucose-1/6-phosphate: metabolite glucose-1/6-phosphate; for glycerate: metabolite glycerate; for guanine: metabolite guanine; for guanosine: metabolite guanosine; for hypoxanthine: metabolite hypoxanthine; for indole: metabolite indole; for inosine: metabolite inosine; for 2_3-Diphosphoglyceric acid / 4-phosphopantothenate / 6-phospho-D-gluconate / FMN / IMP / Pyrophosphate / Sedoheptoluse bisphosphate / cyclic-AMP / glutathione disulfide / lactate / myo-inositol: metabolite level change after treatment; for nicotinate: metabolite nicotinate; for ornithine: metabolite ornithine; for phosphoenolpyruvate: metabolite phosphoenolpyruvate; for pyruvate: metabolite pyruvate; for ribose-phosphate: metabolite ribose-phosphate; for sarcosine/alanine: metabolite sarcosine/alanine; for sn-glycerol-3-phosphate: metabolite sn-glycerol-3-phosphate; for succinate/methylmalonic acid: metabolite succinate/methylmalonic acid; for uridine: metabolite uridine; for xanthosine: metabolite xanthosine

SMILES: CCCCCCOC(=O)C1=C(C)NC(=O)NC1c1ccccc1F (stereo not shown) [MMV007686]
- EC50 (P. falciparum): 106 nM
- Acetyllysine [1]: -0.6021
- N-acetyl-L-ornithine [1]: -0.5247
- N-carbamoyl-L-aspartate [1]: -0.1545
- NADPH [1]: -0.6448
- dAMP [1]: -0.475
- dCMP [1]: 0.2166
- dTDP [1]: -0.8182
- dTMP [1]: -0.71
- dTTP [1]: -0.2978
- dihydroorotate [1]: 0.04156
- orotate [1]: 0.1913
- DLH [1]: 0.3631
- DLS/SDL/SID [1]: 0.06173
- PD [1]: -0.2456
- PEE [1]: -0.1279
- PVNF [1]: 0.4591
- 3-phosphoglycerate [1]: 0.4561
- ADP-D-glucose [1]: 0.08489
- ATP [1]: -0.09097
- CDP [1]: -1.124
- D-sedoheptulose-1/7-phosphate [1]: -0.6707
- FAD [1]: -0.2456
- GMP [1]: 0.9608
- NAD+ [1]: -0.04958
- NADP+ [1]: -0.001559
- Octoluse Bisphosphate [1]: -0.1324
- Pyroglutamic acid [1]: 0.9271
- UDP-D-glucose [1]: -0.1029
- UDP-D-glucuronate [1]: -0.1902
- UDP-N-acetyl-glucosamine [1]: -0.1743
- UDP [1]: -1.121
- UMP [1]: 0.7368
- UTP [1]: -0.5193
- a-ketoglutarate [1]: 0.8749
- citrate/isocitrate [1]: 0.6672
- cytidine [1]: 0.271
- dATP [1]: -0.2157
- dGMP/AMP [1]: -0.5696
- fumarate [1]: 0.5304
- glucose-1/6-phosphate [1]: -0.0799
- glycerate [1]: 0.5979
- guanine [1]: -0.1143
- guanosine [1]: -0.2083
- hypoxanthine [1]: 0.8142
- indole [1]: 0.4434
- inosine [1]: 0.6048
- 2_3-Diphosphoglyceric acid [1]: -0.3849
- 4-phosphopantothenate [1]: -0.1203
- 6-phospho-D-gluconate [1]: -0.2727
- FMN [1]: -0.1451
- IMP [1]: -0.1074
- Pyrophosphate [1]: -0.313
- Sedoheptoluse bisphosphate [1]: -0.1202
- cyclic-AMP [1]: -0.174
- glutathione disulfide [1]: -0.2538
- lactate [1]: 0.3995
- myo-inositol [1]: 0.04912
- nicotinate [1]: 0.5888
- ornithine [1]: 0.3712
- phosphoenolpyruvate [1]: 0.6171
- pyruvate [1]: 0.7724
- ribose-phosphate [1]: 0.6092
- sarcosine/alanine [1]: 0.1752
- sn-glycerol-3-phosphate [1]: 0.5669
- succinate/methylmalonic acid [1]: 0.1316
- uridine [1]: 0.4569
- xanthosine [1]: 0.7187

SMILES: COc1ccc(C(C)=O)cc1N1C(=O)C2C(C1=O)C1(c3ccccc3)C(=O)C2(c2ccccc2)C(c2ccc(C)cc2)=C1c1ccc(C)cc1 (stereo not shown) [MMV007695]
- EC50 (P. falciparum): 179 nM
- Acetyllysine [1]: -0.2737
- N-acetyl-L-ornithine [1]: -0.4583
- N-carbamoyl-L-aspartate [1]: 0.3458
- NADPH [1]: 1.835
- dAMP [1]: 0.454
- dCMP [1]: -0.0001746
- dTDP [1]: 0.6225
- dTMP [1]: 0.1739
- dTTP [1]: 0.01162
- dihydroorotate [1]: -0.0741
- orotate [1]: 0.786
- DLH [1]: 0.4365
- DLS/SDL/SID [1]: 0.2312
- PD [1]: -1.42
- PEE [1]: 0.3408
- PVNF [1]: 0.2956
- 3-phosphoglycerate [1]: -0.5907
- ADP-D-glucose [1]: 0.2728
- ATP [1]: 0.4735
- CDP [1]: 0.708
- D-sedoheptulose-1/7-phosphate [1]: 1.674
- FAD [1]: 0.07228
- GMP [1]: -0.9101
- NAD+ [1]: 0.2072
- NADP+ [1]: 0.5403
- Octoluse Bisphosphate [1]: -1.5013
- Pyroglutamic acid [1]: 0.5983
- UDP-D-glucose [1]: 0.2909
- UDP-D-glucuronate [1]: 0.7314
- UDP-N-acetyl-glucosamine [1]: 0.05292
- UDP [1]: 0.6476
- UMP [1]: -1.868
- UTP [1]: 0.1535
- a-ketoglutarate [1]: 0.5943
- citrate/isocitrate [1]: 1.421
- cytidine [1]: 0.7161
- dATP [1]: 0.1897
- dGMP/AMP [1]: 0.2576
- fumarate [1]: -0.8988
- glucose-1/6-phosphate [1]: -0.6568
- glycerate [1]: -0.4271
- guanine [1]: 0.5906
- guanosine [1]: -0.9684
- hypoxanthine [1]: 0.7986
- indole [1]: 0.2572
- inosine [1]: -0.5212
- 2_3-Diphosphoglyceric acid [1]: -0.9184
- 4-phosphopantothenate [1]: -0.9898
- 6-phospho-D-gluconate [1]: -0.8607
- FMN [1]: -0.08531
- IMP [1]: -0.684
- Pyrophosphate [1]: -1.54
- Sedoheptoluse bisphosphate [1]: -1.405
- cyclic-AMP [1]: -0.504
- glutathione disulfide [1]: -0.8249
- lactate [1]: -1.404
- myo-inositol [1]: -3.565
- nicotinate [1]: 1.458
- ornithine [1]: -0.113
- phosphoenolpyruvate [1]: -0.01223
- pyruvate [1]: -0.001929
- ribose-phosphate [1]: -0.0001746
- sarcosine/alanine [1]: -1.812
- sn-glycerol-3-phosphate [1]: -1.169
- succinate/methylmalonic acid [1]: 0.009176
- uridine [1]: 0.3917
- xanthosine [1]: 0.304
